Measured values published in patent US9546129B2, “DTPA prodrugs, compositions thereof, and methods of using the same” (priority 2012, dated 2017).

What was measured:
[1] = Caco-2 transport study (apical to basolateral); format: in vitro ADME, human; details: human, Caco-2; apical to basolateral; read-out: Apparent permeation coefficient
Method: (§1) Caco-2 cells are a human colon epithelial cancer cell line that expresses transporters, efflux proteins and phase II enzymes and can be used to correlate cell permeability with drug absorption. In addition to determining the apparent permeability coefficient, an estimation of C2E2 metabolism during transport can be obtained. The aim of these preliminary studies was to evaluate a range of C2E2 concentrations (25, 50 & 100 μM) in order to determine a linear concentration range in which further studies could be performed.
(§2) Caco-2 cells (passage #39) were cultured in 75 cm^2T-flasks at 37° C. in a 5% CO2 constant humidity environment. The medium was replaced 3 times a week and the monolayers were sub-cultured to passage #41. When plating the cells 0.5 mL of a 120,000 cells/mL suspension was added to each apical (AP) compartment of the first and then 1.5 mL of cell culture medium was placed into the basolateral (BL) compartment of the Transwells®. Following 21-24 days on the Transwell® plates with media changes 2-3 times a week the Caco-2 transport studies were performed.
(§3) Prior to the transport experiments the transport medium was warmed to 37° C. Transport medium consisted of Hank's Balanced Salt Solution (HBSS) (1×) with calcium and magnesium 500 mL with the addition of 1M HEPES buffer (5 mL) and 1.25M D-Glucose solution in HBSS (10 mL). The cell culture medium was removed from the Transwells® to be used for the experiment and each well was washed twice with warm transport medium. The Transwells® were then pre-incubated for 30 min with transport medium. Finally, the trans-epithelial resistance (TEER) values for each Transwell® were measured using a voltohmmmeter and chopstick electrode. The TEER values should be in the range of 300-750 and should vary as little as possible. Dosing solutions were prepared in warm (37° C.) transport medium. […] The concentration of C2E2 was then determined by LC-MS/MS. The concentration of the dosing solutions was also measured to determine the concentration in the donor compartment at time zero. […]

Caco-2 cells = assay: Caco-2 transport study (apical to basolateral); format: in vitro ADME, human
Method: as §1, §2, §3

[2] = Body weights and clinical observations in the rat single dose decorporation study; format: in vivo, Sprague Dawley rat; details: for Mean body weight: in g (unit assumed)
Source text: Each rat was weighed at contamination (Day 0) and the terminal body weight (Day 7) was taken at necropsy.

[3] = Stability of C2E2 in plasma (Beagle); format: in vitro ADME, dog; details: 37° C., up to two hours
Method: Prior to the study, 975 μL of plasma (Rat, Beagle and Human) was preheated to 37° C. in Eppendorff tubes and the test compound (C2E2) was prepared in DI water (10 mg/mL). The C2E2 was from Lot 050 obtained using Method 2. To initiate the study, 25 μL of the C2E2 solution was added to the pre-heated plasma and briefly vortexed, to mix. At 0, 15, 30, 60 and 120 minutes a 100 μL sample of plasma was taken, an equal volume of cold acetonitrile was added and mixed to precipitate plasma proteins. Samples were centrifuged at 4° C. and 14,000×g for 10 minutes to remove precipitated proteins, the supernatant was collected and the C2E2 concentration determined by HPLC-CAD. All conditions were repeated in triplicate.
HPLC Detection Methods: C2E2 analysis was performed on a prominence HPLC (Shimadzu Corporation, Kyoto, Japan) equipped with a Corona Ultra charged […] detector (CAD) (Thermo scientific, Sunnyvale, Calif.). […]
The gradient is 0.01-34.99 min: 22% B; 35.00-44.99 min: 33% B; 45.00-60.00 min: 38% B. The flow rate is 1.0 mL/min, a Thermo Hypersil ODS column (150 mm 4.6 mm i.d. with 5.0 μm particles) will be used, injection volume will be 10 μL and column oven temperature maintained at 25° C. […] The limit of quantification is 0.35 μg/mL. […]

**Q.** Which Papp A→B at 120 min [1] does the source give for CCOC(=O)CN(CCN(CCN(CC(=O)O)CC(=O)OCC)CC(=O)O)CC(=O)O [C2E2, 6,9-bis(carboxymethyl)-3-(2-ethoxy-2-oxoethyl)-11-oxo-12-oxa-3,6,9-triazatetradecan-1-oic acid] here?
**A.** 4.88 ×10⁻⁶ cm/s

**Q.** And the “Percentage of dose detected in the receiving compartment” value (Caco-2 cells; apical to basolateral, 25, 50 & 100 μM, two hours)?
**A.** 18-22%

**Q.** And the “Predicted absorption in humans” value (Caco-2 cells; from Caco-2 Papp using data of Shiyin Yee)?
**A.** 20-70%

**Q.** And the “Mean Percentage Body Weight Change” value ([2]; Female, C2E2 200 mg/kg, Fasted)?
**A.** 0.8 ± 2.2%

**Q.** And the “Mean Percentage Body Weight Change” value ([2]; Female, C2E2 200 mg/kg, ad libitum)?
**A.** 0.0 ± 2.5%

**Q.** And the “Mean Percentage Body Weight Change” value ([2]; Female, C2E2 600 mg/kg, Fasted)?
**A.** −2.3 ± 3.3%

**Q.** What about the “Mean Percentage Body Weight Change” value ([2]; Female, C2E2 600 mg/kg, ad libitum) of the same compound?
**A.** 1.1 ± 1.2%

**Q.** And the “Mean Percentage Body Weight Change” value ([2]; Female, C2E2 1000 mg/kg, Fasted)?
**A.** −5.0 ± 2.9%

**Q.** And the “Mean Percentage Body Weight Change” value ([2]; Female, C2E2 1000 mg/kg, ad libitum)?
**A.** 0.7 ± 2.1%

**Q.** What about the “Mean Percentage Body Weight Change” value ([2]; Male, C2E2 200 mg/kg, Fasted) of the same compound?
**A.** 8.1 ± 8.4%

**Q.** What about the “Mean Percentage Body Weight Change” value ([2]; Male, C2E2 200 mg/kg, ad libitum) of the same compound?
**A.** 10.4 ± 11.0%

**Q.** And the “Mean Percentage Body Weight Change” value ([2]; Male, C2E2 600 mg/kg, Fasted)?
**A.** 12.6 ± 3.1%

**Q.** And the “Mean Percentage Body Weight Change” value ([2]; Male, C2E2 600 mg/kg, ad libitum)?
**A.** 10.1 ± 3.1%

**Q.** What about the “Mean Percentage Body Weight Change” value ([2]; Male, C2E2 1000 mg/kg, Fasted) of the same compound?
**A.** 12.0 ± 4.8%

**Q.** And the “Mean Percentage Body Weight Change” value ([2]; Male, C2E2 1000 mg/kg, ad libitum)?
**A.** 10.6 ± 0.8%

**Q.** What about the Mean body weight ([2]; female rats, C2E2 200 mg/kg, Fasted, Day 0) of the same compound?
**A.** 245.0 ± 11.6

**Q.** What about the Mean body weight ([2]; female rats, C2E2 200 mg/kg, Fasted, Day 7 (terminal)) of the same compound?
**A.** 246.8 ± 9.6

**Q.** What about the Mean body weight ([2]; female rats, C2E2 200 mg/kg, ad libitum, Day 0) of the same compound?
**A.** 276.8 ± 17.3

**Q.** What about the Mean body weight ([2]; female rats, C2E2 200 mg/kg, ad libitum, Day 7 (terminal)) of the same compound?
**A.** 276.5 ± 15.1

**Q.** And the Mean body weight ([2]; female rats, C2E2 600 mg/kg, Fasted, Day 0)?
**A.** 280.5 ± 28.0

**Q.** And the Mean body weight ([2]; female rats, C2E2 600 mg/kg, Fasted, Day 7 (terminal))?
**A.** 273.5 ± 19.2

**Q.** And the Mean body weight ([2]; female rats, C2E2 600 mg/kg, ad libitum, Day 0)?
**A.** 247.0 ± 13.8

**Q.** And the Mean body weight ([2]; female rats, C2E2 600 mg/kg, ad libitum, Day 7 (terminal))?
**A.** 249.7 ± 14.5

**Q.** And the Mean body weight ([2]; female rats, C2E2 1000 mg/kg, Fasted, Day 0)?
**A.** 276.3 ± 17.9

**Q.** And the Mean body weight ([2]; female rats, C2E2 1000 mg/kg, Fasted, Day 7 (terminal))?
**A.** 262.7 ± 23.8

**Q.** And the Mean body weight ([2]; female rats, C2E2 1000 mg/kg, ad libitum, Day 0)?
**A.** 232.5 ± 19.3

**Q.** What about the Mean body weight ([2]; female rats, C2E2 1000 mg/kg, ad libitum, Day 7 (terminal)) of the same compound?
**A.** 234.2 ± 21.4

**Q.** What about the Clinical observations ([2]; male and female rats, 200, 600, 1000 mg/kg single oral dose, 7 days) of the same compound?
**A.** No adverse C2E2 exposure-related clinical observations

**Q.** And the Mean body weight ([2]; male rats, C2E2 200 mg/kg, Fasted, Day 0)?
**A.** 291.3 ± 12.7

**Q.** What about the Mean body weight ([2]; male rats, C2E2 200 mg/kg, Fasted, Day 7 (terminal)) of the same compound?
**A.** 314.2 ± 14.4

**Q.** What about the Mean body weight ([2]; male rats, C2E2 200 mg/kg, ad libitum, Day 0) of the same compound?
**A.** 296.3 ± 9.4

**Q.** And the Mean body weight ([2]; male rats, C2E2 200 mg/kg, ad libitum, Day 7 (terminal))?
**A.** 326.5 ± 25.7

**Q.** And the Mean body weight ([2]; male rats, C2E2 600 mg/kg, Fasted, Day 0)?
**A.** 275.9 ± 9.7

**Q.** What about the Mean body weight ([2]; male rats, C2E2 600 mg/kg, Fasted, Day 7 (terminal)) of the same compound?
**A.** 310.6 ± 9.1

**Q.** And the Mean body weight ([2]; male rats, C2E2 600 mg/kg, ad libitum, Day 0)?
**A.** 292.8 ± 5.1

**Q.** And the Mean body weight ([2]; male rats, C2E2 600 mg/kg, ad libitum, Day 7 (terminal))?
**A.** 322.2 ± 6.4

**Q.** And the Mean body weight ([2]; male rats, C2E2 1000 mg/kg, Fasted, Day 0)?
**A.** 270.3 ± 5.8

**Q.** And the Mean body weight ([2]; male rats, C2E2 1000 mg/kg, Fasted, Day 7 (terminal))?
**A.** 302.8 ± 14.2

**Q.** And the Mean body weight ([2]; male rats, C2E2 1000 mg/kg, ad libitum, Day 0)?
**A.** 290.5 ± 6.6

**Q.** And the Mean body weight ([2]; male rats, C2E2 1000 mg/kg, ad libitum, Day 7 (terminal))?
**A.** 321.2 ± 6.5

**Q.** What about the “Metabolism in plasma (observation)” value [3] of the same compound?
**A.** minimal or not detected
